Laboratory results reported in doi:10.64898/2025.12.10.692519v1 (biorxiv, 2025).

Assays:
CMK = test: cells; parameters: species or system CHRF; details: Homo sapiens, 72 h, read-out: AB8939 (IC50 nM)
HEP-2 = test: cells; details: Homo sapiens, HEp-2, 144 h, read-out: AB8939
A4573 = test: cells; details: A4573, 144 h, read-out: AB8939
MDA-MB-468 = test: cells; details: Homo sapiens, MDA-MB-468, 144 h, read-out: AB8939
LnCaP = test: cells; details: Homo sapiens, LNCaP, 144 h, read-out: AB8939
NOMO-1 = test: cells; details: Homo sapiens, NOMO-1, 144 h, read-out: AB8939
Karpas-299 = test: cells; details: Homo sapiens, KARPAS-299, 144 h, read-out: AB8939
PLC-PRF5 = test: cells; details: Homo sapiens, PLC-PRF-5, 144 h, read-out: AB8939
NALM-6 = test: cells; details: Homo sapiens, NALM-6, 144 h, read-out: AB8939
REC-1 = test: cells; details: Homo sapiens, Rec1, 144 h, read-out: AB8939
U2OS = test: cells; details: Homo sapiens, U2OS, 144 h, read-out: AB8939
HRT-18 = test: cells; details: Homo sapiens, HRT-18, 144 h, read-out: AB8939
MOLM-14 = test: cells; details: Homo sapiens, MOLM-14, 144 h, read-out: AB8939
PC-3 = test: cells; details: Homo sapiens, PC-3, 144 h, read-out: AB8939
THP-1 = test: cells; details: Homo sapiens, THP-1, 144 h, read-out: AB8939
U-118 = test: cells; details: 144 h, read-out: AB8939
Tov21G = test: cells; details: Homo sapiens, TOV21G, 144 h, read-out: AB8939
A-549 = test: cells; details: Homo sapiens, A549, 144 h, read-out: AB8939
MESSA = test: cells; details: Homo sapiens, MES-SA, 144 h, read-out: AB8939
HL-60 = test: cells; details: Homo sapiens, HL-60, 144 h, read-out: AB8939
SK-N-MC = test: cells; details: Homo sapiens, SK-N-MC, 144 h, read-out: AB8939
DU-145 = test: cells; details: Homo sapiens, DU-145, 144 h, read-out: AB8939
786-O = test: cells; details: Homo sapiens, 786-0, 144 h, read-out: AB8939
HUT-78 = test: cells; details: Homo sapiens, HuT78, 144 h, read-out: AB8939
ACHN = test: cells; details: Homo sapiens, ACHN, 144 h, read-out: AB8939
HGC-27 = test: cells; details: Homo sapiens, HGC-27, 144 h, read-out: AB8939
CCRF-CEM = test: cells; details: Homo sapiens, CCRF-CEM, 144 h, read-out: AB8939
MCF-7 = test: cells; details: Homo sapiens, MCF7, 144 h, read-out: AB8939
ALDH2 = ALDH2 (Homo sapiens, UniProt P05091); test: NADH fluorescence dehydrogenase assay; assay type: biochemical
Chain of ALDH2 (P05091 17-517): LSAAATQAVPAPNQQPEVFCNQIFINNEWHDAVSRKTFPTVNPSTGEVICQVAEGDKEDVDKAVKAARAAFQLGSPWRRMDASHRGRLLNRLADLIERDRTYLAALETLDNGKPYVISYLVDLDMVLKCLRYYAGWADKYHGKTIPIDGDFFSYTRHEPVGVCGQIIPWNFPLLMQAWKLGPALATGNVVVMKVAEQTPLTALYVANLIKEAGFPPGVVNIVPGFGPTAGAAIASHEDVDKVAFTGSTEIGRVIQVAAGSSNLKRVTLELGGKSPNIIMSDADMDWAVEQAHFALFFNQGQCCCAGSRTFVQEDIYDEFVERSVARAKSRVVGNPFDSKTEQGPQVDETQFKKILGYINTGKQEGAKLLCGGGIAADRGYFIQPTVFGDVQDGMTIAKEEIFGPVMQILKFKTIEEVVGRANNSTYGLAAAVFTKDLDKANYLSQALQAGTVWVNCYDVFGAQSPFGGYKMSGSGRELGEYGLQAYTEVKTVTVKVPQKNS

## CCOCc1ccc(C)c(Nc2ncc(-c3ccc(N4CCNC4=O)cc3)o2)c1 [AB8939]
CMK
  IC50: 5.68 nM
HEP-2
  IC50: 1 nM
A4573
  IC50: 3 nM
MDA-MB-468
  IC50: 14 nM
LnCaP
  IC50: 5 nM
NOMO-1
  IC50: 46 nM
Karpas-299
  IC50: 1 nM
PLC-PRF5
  IC50: 2 nM
NALM-6
  IC50: 1 nM
REC-1
  IC50: 4 nM
U2OS
  IC50: 1 nM
HRT-18
  IC50: 1 nM
MOLM-14
  IC50: 14 nM
PC-3
  IC50: 8 nM
THP-1
  IC50: 49 nM
U-118
  IC50: 1 nM
Tov21G
  IC50: 8 nM
A-549
  IC50: 1 nM
MESSA
  IC50: 7 nM
HL-60
  IC50: 14 nM
SK-N-MC
  IC50: 1 nM
DU-145
  IC50: 2 nM
786-O
  IC50: 87 nM
HUT-78
  IC50: 4 nM
ACHN
  IC50: 4 nM
HGC-27
  IC50: 1 nM
CCRF-CEM
  IC50: 1 nM
MCF-7
  IC50: 122 nM
ALDH2
  IC50: 340 nM
